For one assay, the system named is trabecular bone. Nature of the assay: Micro-CT analysis of trabecular bone. The assay is classed as in vivo, mice. Particulars: systemic PTH treatment. On the procedure: The limbs were scanned on a Viva CT 40 (Scanco Medical, Bruttisellen, Switzerland) using a 55-kVp, 145-uA current and a 300-ms integration time with a resolution of 12.5 μm. Trabecular analysis was conducted on a 1.25-mm region 50 μm above the growth plate in the femur and a 625-μm 50 um below the growth plate in the tibia. Cortical analysis was conducted 4.375 mm above/below the growth plate of the femur/tibia for a distance of 375 μm.
Due to the dramatic induction of osteoblastic VEGF-A observed in the setting of PTH stimulation, the functional relevance of this signal in multiple aspects of BM microenvironmental activation was analyzed.

The test system of another assay is osteolineage cells. Description: Angiogenic signals (FGF2, Vegfa) in marrow and osteolineage cells of treated mice. It counts as in vivo. On the procedure:
FGF2 is another angiogenic signal within the BM. In contrast to the effects of VEGF-A on endothelial permeability and migration, FGF2 enforces vascular stability. To determine whether osteoblastic activation by PTH can remodel the BM vasculature through the action of multiple angiogenic signals or VEGF-A alone, FGF2 changes in the marrow of PTH-stimulated mice were analyzed. Indeed, increased endosteal-associated FGF2 in hindlimb BM of mice treated with TID PTH, with a localization pattern similar to that of VEGF was observed. Moreover, FGF2 expression levels were increased within osteolineage cells isolated from TID PTH mice (FIG. 10E).
Immunoreactive VEGF-A and FGF2 were both very high along endosteal surfaces of the hindlimb BM cavity following PTH as compared to control treatment.

The test system of assay [1] is primary mouse osteoblastic cells. Description: PTH stimulation of primary mouse osteoblastic cells from bone marrow stroma. The assay is classed as cell-based. On the procedure: (§1) To determine if PTH increases osteoblast-derived VEGF-A, in vitro PTH stimulation experiments were performed on two osteoblastic cell lines. […] Osteoblastic differentiation was observed through maturational changes in gene expression of Collagen1, Osteocalcin and Pth1r and the ability to form mineralized bone nodules. […] To test whether PTH could directly induce VEGF-A in primary mouse osteoblastic cells as it could in osteoblastic cell lines, mouse bone marrow stroma was harvested and cultured in osteoblastic maturation media prior to stimulation with PTH at specific points throughout differentiation. Again, osteoblastic differentiation was monitored through analysis of Collagen1, Osteocalcin and Pth1r expression as well as by the formation of mineralizing bone nodules.

The subject of assay [2] is osteoblastic UMR106 cells. Description: In vitro PTH stimulation of osteoblastic UMR106 cells. It counts as cell-based. As for the experimental part: as §1
Assay [3] has as its system mouse calvarial MC3T3 cells. Nature of the assay: In vitro PTH stimulation of MC3T3 cells during osteoblastic differentiation. It counts as cell-based. The source says:
Osteoblasts (OBs) and the bone marrow (BM) vasculature constitute hematopoietic stem and progenitor cell (HSPC) niches. OB-activation by Parathyroid Hormone (PTH) expands HSPCs through the BM microenvironment. Activation of osteoblasts through systemic PTH treatment or expression of a constitutively active PTH1 receptor (PTH1R) increases trabecular bone and expands HSPCs in the bone marrow. To test if the vasculature is modulated by PTH, it was first assessed whether PTH expands BM endothelial structures. In a murine model of HSPC-expanding PTH treatment, PTH increased microvessels and vascular area in hindlimb histology (FIG. 3A, 3B and 3E-3H). […] To determine if PTH expands BM vasculature by increasing proangiogenic signals, VEGF-A was analyzed in PTH-stimulated BM. […] To establish whether PTH directly stimulates osteoblastic Vegfa expression, mouse calvarial MC3T3 cells were treated with PTH at various stages of osteoblastic maturation. […] The magnitude of induction increased throughout osteoblastic differentiation. […]
To determine if PTH increases osteoblast-derived VEGF-A, in vitro PTH stimulation experiments were performed on two osteoblastic cell lines. […] Again, osteoblastic differentiation was monitored through analysis of Collagen1, Osteocalcin and Pth1r expression as well as by the formation of mineralizing bone nodules.

A further assay relates to BM vasculature. Description: Histomorphometric analysis of hindlimb bone marrow vasculature after PTH treatment. The assay is classed as in vivo, mice. Particulars: PTH treatment vs vehicle. The source says: Osteoblasts (OBs) and the bone marrow (BM) vasculature constitute hematopoietic stem and progenitor cell (HSPC) niches. OB-activation by Parathyroid Hormone (PTH) expands HSPCs through the BM microenvironment. Activation of osteoblasts through systemic PTH treatment or expression of a constitutively active PTH1 receptor (PTH1R) increases trabecular bone and expands HSPCs in the bone marrow. To test if the vasculature is modulated by PTH, it was first assessed whether PTH expands BM endothelial structures. In a murine model of HSPC-expanding PTH treatment, PTH increased microvessels and vascular area in hindlimb histology (FIG. 3A, 3B and 3E-3H). […] To determine if PTH expands BM vasculature by increasing proangiogenic signals, VEGF-A was analyzed in PTH-stimulated BM. […]
(§2) Methods of administration and analysis of the effects of PTH either alone or in combination are described above. To determine whether bone anabolic, HSPC-expanding regimens of PTH stimulation alter the vascular niche, mice were first treated intensively with PTH and the hindlimb BM vasculature was analyzed. PTH increased BM vascular structures per hindlimb section (femur and tibia) by histomorphometric analysis (FIG. 9A) as well as the area occupied by vasculature measured within the tibial metaphysis (FIG. 9B). […]

Assay [4] deals with hematopoietic stem and progenitor cells (HSPCs). Nature of the assay: Flow cytometric analysis of bone marrow HSPCs from treated mice. The assay is classed as in vivo, C57B1/6 mice. Particulars: systemic PTH treatment. As for the experimental part:
All drugs were administered by intraperitoneal injection. Following 10 days of treatment, mice were sacrificed (on the morning of the eleventh day) and samples were harvested. Hindlimb bone marrow samples were used to generate the data for FIG. 8A as well as for the competitive transplantation of whole bone marrow. Hindlimb bone marrow was harvested by crushing the right hindlimb of each mouse individually using a sterile mortar and pestle in 2.5 mL phosphate buffered saline, filtered through a 40 um cell strainer and placed on ice. For flow cytometric analysis, fresh, filtered bone marrow cells were subjected to a red blood cell lysis procedure using ammonium chloride and then prepared for flow cytometry by staining with a panel of fluorescently-conjugated antibodies recognizing markers of hematopoietic stem and progenitor cells. Samples were then run on an LSR-II 12 color flow cytometer and data was analyzed using TreeStar's FlowJo software. Statistics between treatment groups were analyzed by student's T test. […]
(In general: In flow cytometry, cells or beads pass a laser one at a time.)

The test system of assay [5] is BM blood vessels and perivascular stromal cells. Nature of the assay: CD31 and αSMA immunostaining in the BM. The assay is classed as in vivo, mice. Particulars: PTH. As for the experimental part: (§3) Methods of administration and analysis of the effects of PTH either alone or in combination are described above. To determine whether bone anabolic, HSPC-expanding regimens of PTH stimulation alter the vascular niche, mice were first treated intensively with PTH and the hindlimb BM vasculature was analyzed. PTH increased BM vascular structures per hindlimb section (femur and tibia) by histomorphometric analysis (FIG. 9A) as well as the area occupied by vasculature measured within the tibial metaphysis (FIG. 9B). To clarify whether intensive PTH treatment was vasodilatory to existing vessels or increasing de novo endothelial structures, BMCs of PTH-treated mice were analyzed phenotypically by flow cytometry (FIG. 9D). Intensive PTH treatment expanded populations of BM endothelial cells defined by this immunophenotyic signature (FIG. 9E). […] This expansion of small BM blood vessels was also observed in close association with both trabecular and cortical bone when CD31 immunostaining was examined in the BM (FIG. 9E). The PTH-induced increase in endothelial structures was accompanied by an increase in perivascular α smooth muscle actin (αSMA+) (FIG. 9F), indicating a concomitant increase in perivascular, HSPC supportive stromal cells.

Assay [6] has as its system CD31+ Sca1+ BM endothelial cells. Nature of the assay: Flow cytometry of CD31+ Sca1+ bone marrow endothelial cells. The assay is classed as in vivo, mice. Particulars: PTH treatment vs vehicle. As for the experimental part:
All drugs were administered by intraperitoneal injection. Following 10 days of treatment, mice were sacrificed (on the morning of the eleventh day) and samples were harvested. Hindlimb bone marrow samples were used to generate the data for FIG. 8A as well as for the competitive transplantation of whole bone marrow. Hindlimb bone marrow was harvested by crushing the right hindlimb of each mouse individually using a sterile mortar and pestle in 2.5 mL phosphate buffered saline, filtered through a 40 um cell strainer and placed on ice. For flow cytometric analysis, fresh, filtered bone marrow cells were subjected to a red blood cell lysis procedure using ammonium chloride and then prepared for flow cytometry by staining with a panel of fluorescently-conjugated antibodies recognizing markers of hematopoietic stem and progenitor cells. Samples were then run on an LSR-II 12 color flow cytometer and data was analyzed using TreeStar's FlowJo software. Statistics between treatment groups were analyzed by student's T test.
as §3

The test system of assay [7] is vessels larger than 20 um in diameter. Nature of the assay: Vascular micro-CT of vessels larger than 20 um in diameter. It counts as in vivo, mice. Particulars: vascular uCT, TID PTH.
Text: FIGS. 3A-3H are graphs (FIGS. 3A-3G) and pictures (FIG. 3H) showing PTH increases bone marrow microvascularity. FIG. 3A is a graph showing histomorphometric analysis of bone marrow microvascular structures per hindlimb section (femur and tibia). FIG. 3B is a graph showing histomorphometric analysis of bone marrow vascular area, measured within a region of interest in the tibial metaphysis. FIG. 3C is a graph showing frequency of CD31+ Sca1+ bone marrow endothelial cells following TID PTH treatment. FIG. 3D is a graph showing frequency of CD31+ Sca1+ bone marrow endothelial cells isolated from CollcaPTH1R-expressing mice (TG) or wildtype littermates (WT). […]
as §2, with “9B). To clarify whether intensive PTH treatment was vasodilatory to existing vessels or increasing de novo endothelial structures, BMCs of PTH-treated mice were analyzed phenotypically by flow cytometry (FIG. 9D).” for “9B).”

In a further assay the test system is VEGF-A. Description: Immunohistochemical staining for VEGF-A in hindlimb BM. The assay is classed as in vivo. Particulars: PTH-treated mice vs vehicle, endosteal/bone surfaces. An excerpt:
Osteoblasts (OBs) and the bone marrow (BM) vasculature constitute hematopoietic stem and progenitor cell (HSPC) niches. OB-activation by Parathyroid Hormone (PTH) expands HSPCs through the BM microenvironment. Activation of osteoblasts through systemic PTH treatment or expression of a constitutively active PTH1 receptor (PTH1R) increases trabecular bone and expands HSPCs in the bone marrow. To test if the vasculature is modulated by PTH, it was first assessed whether PTH expands BM endothelial structures. In a murine model of HSPC-expanding PTH treatment, PTH increased microvessels and vascular area in hindlimb histology (FIG. 3A, 3B and 3E-3H). […] To determine if PTH expands BM vasculature by increasing proangiogenic signals, VEGF-A was analyzed in PTH-stimulated BM. […] To establish whether PTH directly stimulates osteoblastic Vegfa expression, mouse calvarial MC3T3 cells were treated with PTH at various stages of osteoblastic maturation. […] The magnitude of induction increased throughout osteoblastic differentiation. […] Bevacizumab blunted PTH-mediated expansion of phenotypic BM ECs when bevacizumab and PTH treatment was compared to PTH alone.
To determine whether the PTH-dependent increase in BM microvascularity is due to local induction of proangiogenic signals, immunostaining for candidate angiogenic factors already implicated in marrow endothelial signaling was performed.

A further assay deals with OBs. Nature of the assay: PTH stimulation of OBs in vitro. The assay is classed as cell-based.
The subject of a further assay is HSPCs. Description: Competitive transplantation of whole BM into lethally irradiated recipient mice. The assay is classed as in vivo, C57B1/6 mice. Particulars: primary recipients of treated donor BM.

The text below walks through data of patent US20150273055A1, “METHODS AND COMPOSITIONS FOR EXPANDING HEMATOPOIETIC STEM AND PROGENITOR CELLS” (UNIVERSITY OF ROCHESTER, priority 2012, published 2015).

“Also recorded” adds a separate entry of the source.

For the substance Parathyroid hormone (1-34) [PTH], in the assay on trabecular bone, the trabecular bone result is reported as “increases”. The “endosteal-associated FGF2 in hindlimb BM” value with osteolineage cells (TID PTH) is “increased”. Further, the “FGF2 expression levels within osteolineage cells” value in the assay with osteolineage cells (cells isolated from TID PTH mice) is on record as “increases”. The “Vegfa expression in osteolineage bone-associated cells” value in the assay on osteolineage cells (cells isolated from mice treated with PTH) was “increases”. The “soluble VEGF-A protein secreted into the culture media” value in assay [1] (PTH treatment) was “a significant effect of PTH treatment was not detected”. The “Vegfa mRNA levels” value in assay [1] (as early as four hours post PTH treatment of maturing osteoblastic cells) is on record as “increased”. Moreover, the VEGF-A protein secretion entry in [2] (by six hours post PTH-stimulation) is “increase”. The Vegfa expression in assay [2] (two hours post PTH stimulation, n=3, p=0.0055) was 8.500±1.320 fold change above baseline. In addition, in assay [3], the “secreted VEGF-A protein” value was “increased; also recorded: robust”. The Vegfa expression result in assay [3] (throughout osteoblastic differentiation) is listed as “strongly induced; also recorded: induced”. Further, in the assay on BM vasculature, the “BM microvessels / vascular structures per hindlimb section (femur and tibia)” value is “increased”; the “vascular area (tibial metaphysis)” value is on record as “increased”. In addition, the “HSPCs in the bone marrow” value in assay [4] is on record as “expands”. In addition, in assay [5], the “perivascular α smooth muscle actin (αSMA+)” value is given as “increase”; the “small BM blood vessels (CD31 immunostaining) associated with trabecular and cortical bone” value was “expansion”. For the same substance, the “CD31+ Sca1+ BM endothelial cells” value in [6] is listed as “increased; also recorded: expanded”. The “vessel frequency, density or volume” value in assay [7] is on record as “no increase”. The “VEGF-A protein staining in BM” value in the assay on VEGF-A was “increased along bone surfaces; also recorded: strongly increased; also recorded: global increase”. Also, in the assay with OBs, the “FGF2 in OBs in vitro” value is listed as “simultaneously increased” and the “expression of VEGF-A in OBs in vitro” value is reported as “increased”. For the same substance, the multilineage hematopoietic reconstitution entry in the assay with HSPCs is recorded as “transiently increased”.
